Measured values published in patent US20070203118A1, “SUBSTITUTED TETRAHYDROISOQUINOLINES USED IN THE FORM OF MMP INHIBITORS, METHOD FOR THE PRODUCTION AND USE THEREOF IN THE FORM OF DRUGS” (SANOFI-AVENTIS DEUTSCHLAND GMBH, priority 2004, published 2007).

Experiments:
[1] = target: T1, catalytic domain of human collagenase-3 (MMP-13) (Homo sapiens, UniProt P45452); assay: Enzymatic activity of the catalytic domain of human collagenase-3 (MMP-13), fluorogenic substrate; type: biochemical
T1 construct: Determination of the Enzymatic Activity of the Catalytic Domain of Human Collagenase-3 (MMP-13); purchased INVITEK, Berlin
Method: Determination of the Enzymatic Activity of the Catalytic Domain of Human Collagenase-3 (MMP-13)
(§1) Activation of the proenzyme: 2 parts by volume of proenzyme were incubated with 1 part by volume of APMA solution at 37° C. for 1.5 hours. The APMA solution was prepared from a 10 mmol/l p-aminophenylmercuric acetate solution in 0.1 mmol/l NaOH by dilution with 3 parts by volume of Tris/HCl buffer pH 7.5 (see below). The pH was adjusted to between 7.0 and 7.5 by adding 1 mmol/l HCl. After activation of the enzyme it was diluted with the Tris/HCl buffer to a concentration of 1.67 μg/ml.
(§2) The enzymic activity was measured by incubating 10 μl of enzyme solution with 10 μl of a 3% strength (v/v) buffered dimethyl sulfoxide solution (reaction 1) for 15 minutes. The enzyme inhibitor activity was measured by incubating 10 μl of enzyme solution with 10 μl of a 3% strength (v/v) buffered dimethyl sulfoxide solution which contained the enzyme inhibitor (reaction 2).
The enzymic reaction both in the case of reaction 1 and in the case of reaction 2 was followed after addition of 10 μl of a 3% strength (v/v) aqueous dimethyl sulfoxide solution which contained 0.075 mmol/l of the substrate by fluorescence spectroscopy (328 nm (extinction)/393 nm (emission)).
The enzymic activity has been presented as increase in extinction/minute. The effect of the inhibitor was calculated as percentage inhibition by the following formula: % inhibition=100−[(increase in extinction/minute in reaction 2)/(increase in extinction/minute in reaction 1)×100].
(§3) The IC50, which is the concentration of inhibitor which is necessary for 50% inhibition of the enzymic activity, was determined graphically by plotting the percentage inhibitions at various inhibitor concentrations.
(§4) The buffer solution contained 0.05% Brij (Sigma, Deisenhofen, Germany) and 0.1 mol/l Tris/HCl, 0.1 mol/l NaCl, 0.01 mol/l CaCl2 (pH=7.5). The enzyme solution contained 1.67 μg/ml of the enzyme domain. The substrate solution contained 0.075 mmol/l of the fluorogenic substrate (7-methoxycoumarin-4-yl)acetyl-Pro-Leu-Gly-Leu-3-(2′,4′-dinitrophenyl)-L-2,3-diaminopropionyl-Ala-Arg-NH2 (Bachem, Heidelberg, Germany).

[2] = target: T2, catalytic domain of human gelatinase-A (MMP-9) (Homo sapiens, UniProt P14780); assay: Enzymatic activity of the catalytic domain of human gelatinase (MMP-9), fluorogenic substrate; type: biochemical; settings: for MMP9:MMP1, selectivity of inhibition of MMP-9 in relation to MMP-1: ratio of the IC50 values of Table 4
T2 construct: Determination of the Enzymatic Activity of the Catalytic Domain of Human Gelatinase-A (MMP-9); purchased Roche, Mannheim
T2 sequence (P14780 107-707 limits assumed): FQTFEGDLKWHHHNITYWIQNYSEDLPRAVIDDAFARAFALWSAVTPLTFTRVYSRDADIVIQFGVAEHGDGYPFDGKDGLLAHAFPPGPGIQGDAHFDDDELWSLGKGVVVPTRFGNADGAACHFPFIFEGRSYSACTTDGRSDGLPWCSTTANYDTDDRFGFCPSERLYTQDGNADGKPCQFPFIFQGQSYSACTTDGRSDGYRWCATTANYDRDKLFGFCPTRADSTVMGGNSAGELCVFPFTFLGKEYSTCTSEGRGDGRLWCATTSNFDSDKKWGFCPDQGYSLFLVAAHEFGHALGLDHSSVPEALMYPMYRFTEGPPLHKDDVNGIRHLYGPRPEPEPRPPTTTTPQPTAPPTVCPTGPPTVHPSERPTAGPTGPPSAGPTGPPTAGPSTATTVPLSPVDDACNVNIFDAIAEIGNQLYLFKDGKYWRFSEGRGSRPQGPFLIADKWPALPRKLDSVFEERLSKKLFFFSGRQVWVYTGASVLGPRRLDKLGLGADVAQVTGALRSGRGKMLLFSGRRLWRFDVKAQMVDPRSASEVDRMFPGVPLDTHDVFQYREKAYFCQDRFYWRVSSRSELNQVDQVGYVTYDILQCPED
Method: Determination of the Enzymatic Activity of the Catalytic Domain of Human Gelatinase-A (MMP-9)
Activation of the proenzyme:
as §1, with “2” for “Activation of the proenzyme: 2”, “4” for “1.5”, “4.2 mU/ml.” for “1.67 μg/ml.”
as §2
The enzymic reaction both in the case of reaction 1 and in the case of reaction 2 was followed after addition of 10 μl of a 3% strength (v/v) aqueous dimethyl sulfoxide solution which contained 0.15 mmol/l of the substrate by fluorescence spectroscopy (328 nm (extinction)/393 nm (emission)).
The enzymic activity has been presented as increase in extinction/minute.
The effect of the inhibitor was calculated as percentage inhibition by the following formula: % inhibition=100−[(increase in extinction/minute in reaction 2)/(increase in extinction/minute in reaction 1)×100].
as §3
as §4, with “4.2 mU/ml” for “1.67 μg/ml”, “0.15” for “0.075”

Row | IC50 [1] | IC50 [2] | MMP9:MMP1, selectivity of inhibition of MMP-9 in relation to MMP-1 [2] | Molecule
1 | 7.5 nM | 60 nM | 67 | COc1ccc(F)c2c1[C@H](C(=O)NO)N(S(=O)(=O)c1ccc(-c3ccc(Cl)cc3)cc1)CC2 [Compound 18]
2 | 2 nM | 1 nM | 300 | COc1cc2c(cc1OC)[C@@H](C(=O)NO)N(S(=O)(=O)c1ccc(-c3ccc(Cl)cc3)cc1)CC2 [Compound 15]
3 | 2.3 nM | 1.8 nM | 78 | O=C(NO)[C@H]1c2ccccc2CCN1S(=O)(=O)c1ccc(Oc2ccncc2)cc1 [Compound 11]
4 | 2.5 nM | 3.2 nM | 313 | O=C(NO)[C@H]1c2ccccc2CCN1S(=O)(=O)c1ccc(Oc2ccc(C(F)(F)F)cc2)cc1 [Compound 21, (R)-2-[4-(4-trifluoromethylphenoxy)benzenesulfonyl]-1,2,3,4-tetrahydro-isoquinoline-1-hydroxycarboxamide]
5 | 30 nM | 20 nM | >500 | O=C(NO)[C@H]1c2ccccc2CCN1S(=O)(=O)c1ccc(Oc2ccc(OC(F)(F)F)cc2)nc1 [Compound 43, (R)-2-[6-(4-trifluoromethoxyphenoxy)pyridine-3-sulfonyl]-1,2,3,4-tetrahydro-isoquinoline-1-hydroxycarboxamide]
6 | 2.1 nM | 1 nM | 2 | O=C(NO)[C@H]1c2ccccc2CCN1S(=O)(=O)c1ccc(Oc2ccc(Cl)cc2)cc1 [Compound 9]
7 | 2.2 nM | 1.3 nM | 231 | 2-{2-[4-(4-fluorophenoxy)phenyl]ethanesulfonyl}-1,2,3,4-tetrahydroisoquinoline-1-hydroxycarboxamide [Compound 20]
8 | 130 nM | 18 nM | 89 | O=C(NO)[C@H]1c2ccccc2CCN1S(=O)(=O)c1ccc(Oc2ccc(OCC(F)(F)F)cc2)cc1 [Compound 22]
9 | 3 nM | 2 nM | – | (R)-4-(1-hydroxycarbamoyl-3,4-dihydro-1H-isoquinoline-2-sulfonyl)phenyl benzoate [Compound 48]

Row | Molecule | IC50 [1] | IC50 [2] | MMP9:MMP1, selectivity of inhibition of MMP-9 in relation to MMP-1 [2]
10 | O=C(NO)[C@H]1c2ccccc2CCN1S(=O)(=O)c1ccc(Oc2ccc(Cl)cc2)nc1 [Compound 45, (R)-2-[6-(4-chlorophenoxy)pyridine-3-sulfonyl]-1,2,3,4-tetrahydroisoquinoline-1-hydroxycarboxamide] | 8 nM | 3 nM | 667
